Laboratory results published in PMC6134108, “Nystatin-like Pseudonocardia polyene B1, a novel disaccharide-containing antifungal heptaene antibiotic” (Scientific Reports, 2018).

Columns and labels:
[1] = Microsomal (metabolic) stability; assay type: in vitro ADME; conditions: human liver microsomes 1.0 mg/ml; for half-life at 1 µM / microsomal CLint at 1 µM / remaining at 80 min, 1 µM: pH 7.4; for remaining at 80 min, 1 µM: 80-min incubation
Method: A metabolic stability experiment was conducted to calculate the rate of disappearance of polyene macrolides following in vitro incubation with human microsomes. Working solutions of polyene macrolides were prepared from a 10 mM stock solution in dimethyl sulfoxide (DMSO) diluted to a final concentration of 1 µM in 0.1 M potassium phosphate buffer (pH 7.4). Each incubation mixture included 1 mg/mL human microsomal protein (BD Gentest^TM, Franklin Lakes, NJ, USA) and 1 mM NADPH. The reactions were terminated at 0, 15, 45, and 80 min. The reaction mixtures were vigorously vortexed and then analyzed using the API2000 LC-MS/MS) system (Applied Biosystems, USA) using an Xterra MS C18 (3.5-µm, 2.1 × 50 mm, Waters).

[2] = system: cholesterol-containing membranes; test: Preliminary SPR experiments; assay type: binding; conditions: unpublished data
HepG2 cells = test: In vitro hepatotoxicity (MTS cell proliferation assay); assay type: cell-based, human
Method: (§1) For the minimum inhibitory concentration (MIC) assay, strains for testing were grown on YPD agar for 24 hours, and subcultured to YPD broth medium. Whole strains were incubated for 18 hours at 35 °C by shaking incubator. Grown organisms were diluted with fresh RPMI 1640 medium to appropriate concentration, 5 × 10^4 CFU/ml. Cultures were inoculated to 96-well plates containing antifungal medium. All compounds were dissolved using Dimethyl Sulfoxide (DMSO) and diluted broth media. Fungal diluted solution and antifungal medium were mixed at 1:1 ratio so total 200 ul mixed medium was made. Whole experiment plates were incubated for 24 hours at 37 °C. […] The MICs were calculated in duplicate using the Clinical and Laboratory Standards Institute M27-A3 microbroth methodology. Hemolysis experiments and the 3-(4,5-dimethylthiazol-2-yl)-5-(3-carboxymethoxyphenyl)-2-(4-sulfophenyl)-2H-tetrazolium (MTS) cell proliferation colorimetric assay were performed following known procedures[12],[27],[29].

Hep3B cells = test: as above; assay type: cell-based, human
Method: as §1

C. albicans = test: In vitro antifungal activity against four different C. albicans strains (comparison); assay type: cell-based, Candida albicans
Method: as §1

| Compound | Clearance class [1] | half-life at 1 µM [1] | microsomal CLint at 1 µM [1] | remaining at 80 min, 1 µM [1] | affinity compared with NPP B1 [2] | in vitro hepatotoxicity compared with AmB (HepG2 cells) | in vitro hepatotoxicity compared with AmB (Hep3B cells) | k [1] | antifungal activity, fold lower than amphotericin B (C. albicans) |
| --- | --- | --- | --- | --- | --- | --- | --- | --- | --- |
| C[C@@H]1[C@H](O)[C@@H](C)/C=C/C=C/C=C/C=C/C=C/C=C/C=C/[C@H](O[C@@H]2O[C@H](C)[C@@H](O)[C@H](N)[C@@H]2O)C[C@@H]2O[C@](O)(C[C@@H](O)C[C@@H](O)[C@H](O)CC[C@@H](O)C[C@@H](O)CC(=O)O[C@H]1C)C[C@H](O)[C@H]2C(=O)O [Amphotericin B, amphotericin B] | Low | > 80 min | < 8600 µL/min/mg | 101% | higher affinity | – | – | – | – |
| CC(=O)NC1C(OC2C(C)OC(OC3C=CC=CC=CC=CC=CC=CC=CC(C)C(O)C(C)C(C)OC(=O)CC(O)CC(O)CC(O)CCC(O)C(O)CC4(O)CC(O)C(C(=O)O)C(C3)O4)C(O)C2N)OC(CO)C(O)C1O (stereo not shown) [NPP B1, Nystatin-like Pseudonocardia polyene B1] | Moderate | 36.5 min | 19000 µL/min/mg | 28.2% | – | not improved | not improved | 0.019 | 2 fold |
